We go through 9 compounds from PubChem BioAssay (NCI).

SMILES strings stand for the structures. Several values for one entry are separate records, joined by “and”; a condition that tells them apart may be missing. Equal entries are not always repeated.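 Growth conditions: 96-well plates. Treatment: test compound, 48 hours, 5 concentrations. Analysis: linear interpolation between bracketing concentrations; unreached endpoints set to highest concentration. At the GI50, growth is halved. TGI is the concentration that stops growth completely.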

Experiment in all cases: growth of human tumour cells (NCI), 48 h
The test system of experiment [1] is NCI-H522 lung.
For experiment [2], the system named is RXF 393 renal.
The subject of experiment [3] is BT-549 breast.
For experiment [4], the system named is MDA-MB-231 breast.
Experiment [5] concerns HL-60(TB) leukemia.
Experiment [6] concerns SF-295 CNS.
Experiment [7] deals with A549 NSCLC.
For experiment [8], the system named is SR leukemia.
Experiment [9] has as its system KM12 colon.
For experiment [10], the system named is ACHN renal.

For the compound `O=C(CSc1nc2ccc([N+](=O)[O-])cc2[nH]1)Nc1ccc([N+](=O)[O-])cc1`, the GI50 is 1.69 µM in [1]; 1.95 µM in experiment [2]; 2.34 µM in [3]; 2.08 µM in experiment [4]; 2.81 µM in experiment [5]; 2.03 µM in experiment [6]. Also, the GI50 in experiment [7] is 2.94 µM; in experiment [8], 3.15 µM; in [9], 2.65 µM; in [10], 2.49 µM. Also, the TGI in experiment [1] was 9.01 µM; in experiment [2], 7.24 µM; in experiment [3] it was 14.3 µM; in [4], 6.31 µM; in experiment [5], greater than 25.7 µM; in [6], 6.43 µM. Moreover, the TGI in experiment [7] is 14.2 µM; in experiment [8], greater than 46.4 µM; in experiment [9], 12.9 µM; in experiment [10], 8.02 µM.
Take `O=C(NCCCNc1cc(-c2cn(-c3ccccc3)nc2-c2cccc(O)c2)ccn1)c1ccc(F)cc1`: the GI50 in experiment [1] is 3.09 µM; in experiment [2], 1.63 µM; in experiment [3], 1.59 µM; in experiment [4], 2.09 µM; in experiment [5] it was 2.46 µM; in [6], 1.86 µM. The GI50 is 3.65 µM in experiment [7], 1.65 µM in experiment [8], 3.18 µM in experiment [9] and 3.36 µM in experiment [10]. Besides, the TGI in [1] is 11.4 µM; in experiment [2], 4.63 µM; in experiment [3] it was 6.31 µM; in experiment [4], 4.98 µM; in [5] it was 6.49 µM; in [6] it was 4.58 µM. Further, the TGI in [7] was determined as 20.8 µM; in experiment [8], 6.53 µM; in experiment [9] it was 12.3 µM; in experiment [10] it was 73.6 µM.
With `ClCCN(CCCl)c1ccc(OCc2ccccc2)cc1`, the GI50 was 4.64 µM in experiment [1]; 2.5 µM in experiment [3]; 16.6 µM in experiment [4]; 1.84 µM in experiment [5]; 1.79 µM in [6]; 2.53 µM in experiment [7]. Besides, the GI50 in experiment [8] is 0.395 µM; in experiment [9] it was 14.2 µM; in [10] it was 2.1 µM. For the same compound, the TGI in [1] is 21.9 µM; in experiment [3] it was 22.6 µM; in experiment [4], 48.6 µM; in experiment [5] it was 23.7 µM; in experiment [6], greater than 100 µM; in [7] it was 29.8 µM. Also, the TGI in [8] is 15.5 µM; in [9] it was 36.7 µM; in experiment [10], greater than 100 µM.
As to `Nc1cc2c(c3ccccc13)C(CCl)CN2C(=O)c1cc2cc(NC(=O)c3cc4ccccc4o3)ccc2[nH]1` (stereo not given), the GI50 in experiment [1] was greater than 0.11 µM; in experiment [4], greater than 0.11 µM; in experiment [5] it was greater than 0.11 µM; in experiment [8], greater than 0.11 µM; in experiment [9] it was greater than 0.11 µM; in [10], 0.000208 µM. Further, the TGI was 0.00332 µM and < 0.11 µM in [1]; 0.00708 µM in [3]; greater than 1100 µM in experiment [4]; less than 0.11 µM in experiment [5]; 200 µM in experiment [8]; 0.0235 µM and < 0.11 µM in experiment [9].
As to `O=C(NC(=S)Nc1ccc(-c2nc3ccccc3[nH]2)cc1)c1ccc2ccccc2c1`, the GI50 in [1] was 18.9 µM; in [2], 1.92 µM; in experiment [3], 2.2 µM; in [4] it was 2.46 µM; in experiment [5], 6.31 µM; in [7] it was 3.79 µM. The GI50 in [8] is 0.645 µM; in experiment [9] it was 6.49 µM; in [10], 1.92 µM. Moreover, the TGI in [1] was greater than 100 µM; in experiment [2], 3.77 µM; in [3], 6.73 µM; in experiment [4], 7.15 µM; in experiment [5], 26 µM; in experiment [7], greater than 100 µM. In addition, the TGI is 11.6 µM in experiment [8], greater than 100 µM in experiment [9] and 4.02 µM in experiment [10].
With `C#CCOCCCC(=O)O`, the TGI in experiment [2], in experiment [3], in [4], in [5], in [6] and in experiment [7] was greater than 100 µM each time. In addition, the TGI in [8] and in experiment [10] was greater than 100 µM in each case.
As for `CC[n+]1c(/C=C/c2ccc(N3CCCC3)cc2)cccc1/C=C/c1ccc(N2CCCC2)cc1`, the GI50 in [1] was 0.239 µM; in [2], 0.207 µM; in [3], 0.103 µM; in experiment [4], 0.264 µM and 0.268 µM; in experiment [5], 0.049 µM and 0.391 µM; in [6] it was 0.263 µM. Further, the GI50 in experiment [7] is 0.296 µM and 0.26 µM; in experiment [9], 0.116 µM; in experiment [10], 0.18 µM and 0.24 µM. Besides, the TGI in experiment [1] is 2.08 µM; in experiment [2], 1.51 µM; in experiment [3] it was 1.76 µM; in [4] it was 1.29 µM and 1.11 µM; in experiment [6] it was 1.9 µM; in experiment [7] it was 1.65 µM and 0.919 µM. The TGI in experiment [9] is 0.238 µM; in experiment [10], 0.915 µM and 1.14 µM.
On to `CCOC(=O)c1cc2c(OC)cc(OC)cc2oc1=O`, for which the TGI in [1], in experiment [2], in experiment [3], in experiment [4], in experiment [5] and in experiment [6] was greater than 100 µM throughout. Moreover, the TGI in experiment [7], in experiment [8] and in [10] was greater than 100 µM throughout.
Turning to `CN(CCNc1ccc(C(=N)N)cc1)c1ccc(C(=N)N)cc1`, the GI50 is 27.5 µM in experiment [1]; 13.8 µM in experiment [3]; greater than 100 µM in experiment [4]; 49.4 µM in experiment [5]; 5.8 µM in [6]; 0.249 µM in experiment [7]. The GI50 in [8] was 28.6 µM; in experiment [9] it was 38.3 µM; in experiment [10], greater than 100 µM. Further, the TGI was greater than 100 µM in experiment [1]; 38.4 µM in [3]; greater than 100 µM in [4]; greater than 100 µM in experiment [5]; 60.2 µM in experiment [6]; greater than 100 µM in experiment [7]. For the same compound, the TGI in [8], in [9] and in experiment [10] was greater than 100 µM throughout.
